Common to all, as to format: cell-based, mouse
Test [1] has as its system 4T1 cells. In words: Measurement of extracellular pH of culture medium, 4T1 cells. The settings on record: hypoxia 72 hours, CAI 17 400 μM. The protocol:
(§1) The acquisition, generation and culture of the mouse breast cancer cell lines 4T1, 66cl4 and 67NR have been described previously^11. These 3 cell lines stably express a luciferase reporter^11 and were cultured routinely in DMEM supplemented with 10% FBS, non-essential amino acids and […] puromycin. Incubation in normoxia was carried out in a humidified atmosphere of 5% CO2 and 95% air at 37° C. Cells were maintained in conditions of hypoxia (1% O2 and 5% CO2 balanced with N2) at 37° C. in a humidified incubator positioned in a sealed anaerobic workstation.
Cells were plated in 60 mm dishes and allowed to recover for 24 hours. Growth medium was then replaced with a standard 3 ml volume of fresh media and cells were incubated in normoxia or hypoxia for 72 hours. Spent media was collected in 15 ml conical tubes, maintained at 37° C. and pH was measured immediately using a digital pH meter. Triplicate plates were run for each condition and results were averaged. Cell layers were kept on ice and were harvested for qRT-PCR and Western blot analysis. […]
(§2) Data are expressed as the mean change in extracellular pH±s.e.m. of triplicate samples and are representative of 3 independent experiments. […]
Data are expressed as the mean change in extracellular pH±s.e.m. and are representative of 2 independent experiments (each n=3).

The test system of test [2] is 66cl4 cells. Description: Measurement of extracellular pH of culture medium, 66cl4 cells. The settings on record: hypoxia 72 hours, CAI 17 600 μM. The protocol: as §1
Cells were plated in 60 mm dishes and allowed to recover for 24 hours. Growth medium was then replaced with a standard 3 ml volume of fresh media and cells were incubated in normoxia or hypoxia for 72 hours. Spent media was collected in 15 ml conical tubes, maintained at 37° C. and pH was measured immediately using a digital pH meter. Triplicate plates were run for each condition and results were averaged. Cell layers were kept on ice and were harvested for qRT-PCR and Western blot analysis.
CAI 17 was a generous gift from Dr. Claudiu Supuran (University of Florence, Florence, Italy). The chemical properties of this sulfonamide have been previously described^20,34. […]
as §2

Test [3] deals with 4T1 cells. In words: Binding of FITC-tagged CAIX inhibitor to cells (epifluorescence), 4T1 cells. As to conditions: hypoxia 72 hours, 10 μM. As to the method: (§3) CAI 17 was a generous gift from Dr. Claudiu Supuran (University of Florence, Florence, Italy). The chemical properties of this sulfonamide have been previously described^20,34. The sulfonamide was dissolved in 100% DMSO, stored at −80° C. and diluted into culture medium just prior to application. Subconfluent cell monolayers were incubated with CAI 17 for 72 hours in normoxia or hypoxia, washed 3× in PBS and imaged using a Ziess Axioplan epifluorescence microscope.
(§4) FIG. 4, part d, depicts localization of the fluorescent CAIX inhibitor, CAI 17, on cells. To determine whether the acidification was CAIX-dependent, cells were treated with a highly specific CAIX inhibitor (compound 17 or “CAI 17”)^20. Cells were incubated in normoxia or hypoxia for 72 hours in the presence of CAI 17 at a concentration of 10 μM. Shown are representative images of the FITC-tagged inhibitor bound to the cells under the indicated experimental conditions. Data were similar in 3 independent experiments.

Test [4] deals with 66cl4 cells. Description: Binding of FITC-tagged CAIX inhibitor to cells (epifluorescence), 66cl4 cells. As to conditions: hypoxia 72 hours, 10 μM. The protocol:
as §3, §4

The next test concerns 67NR cells. In words: Binding of FITC-tagged CAIX inhibitor to cells (epifluorescence), 67NR cells. As to conditions: hypoxia 72 hours, 10 μM. As to the method: as §3, §4

Molecules are shown by their SMILES.

In the case of `NS(=O)(=O)c1ccc(CCNC(=S)Nc2ccc(-c3c4ccc(=O)cc-4oc4cc(O)ccc34)c(C(=O)O)c2)cc1` [CAI 17], the “acidification of the extracellular medium under hypoxia” value in the test on 4T1 cells [1] and with 66cl4 cells [2] was “reversed acidification of the extracellular medium” each time. For the same compound, the “binding of FITC-tagged inhibitor to cell surfaces” value in the test on 4T1 cells [3] is “binds to the cell surfaces”; with 66cl4 cells [4] it was “binds to the cell surfaces”; in the test on 67NR cells it was “not”.

Values taken from patent publication US20100317533A1, “BIOMARKERS OF CANCER METASTASIS” (BRITISH COLUMBIA CANCER AGENCY BRANCH, priority 2009, published 2010).
